Assay results taken from patent publication US20250026765A1, “SPIROHETEROCYCLE DERIVATIVE HAVING SEROTONIN RECEPTOR BINDING ACTIVITY” (Shionogi & Co., Ltd., priority 2021, published 2025).
Read-outs that look alike come from different tables or passages of the source.

Columns and labels:
[1] = target: human recombinant 5-HT2C receptor (Homo sapiens (Human), UniProt P28335); assay: 5-HT2C receptor binding inhibition test ([3H]-Mesulergine); conditions: Jump-In HEK cell membrane, 37° C. 2 hours
Procedure: Test Example 2: 5-HT2C Receptor Binding Inhibition Test
(§1) (Each Experimental Condition)
Cell membrane: 0.5 μg of Jump-In HEK cell membrane (expressing human recombinant 5-HT2C receptor) per well
(§2) Assay buffer: Tris-HCl 50 mmol/L (pH 7.4) containing NaCl 120 mmol/L, MgCl2·6H2O 1 mmol/L, KCl 5 mmol/L, 0.1% BSA and CaCl2 2 mmol/L
Radioactive ligand: [^3H]-Mesulergine with a final concentration of around Kd value calculated by the following method
Non-specific ligand: Serotonin HCl with a final concentration of […]
(§3) The Kd value is calculated when the lot of cell membrane is changed. In advance, 0.5 μL of a 1 mmol/L compound for non-specific binding calculation dissolved in DMSO or DMSO is dispensed into a microplate, and the cell membrane is diluted with an Assay buffer. The radioactive ligand solution is serially diluted and the count is confirmed with a liquid scintillator. Assay buffer containing diluted cell membrane is dispensed into a microplate at 50 μL/well. Then, the radioactive ligand solution is dispensed into a microplate at 50 μL/well, and the plate is sealed. It is allowed to stand at 37° C. for 2 hours. During this period, 50 mmol/L Tris-HCl (pH 7.4) is dispensed into a GF/B UniFilter plate at 50 μL/well and allowed to stand at 4° C. for 1 hour or longer. After that, filtration is performed with Cell harvester (PerkinElmer). The radioactive ligand solution is dispensed into an empty well of the GF/B UniFilter plate at 10 μL/well. After the GF/B UniFilter plate is dried at room temperature, MicroScinti 20 is dispensed into the GF/B UniFilter plate at 50 μL/well to seal the plate. The GF/B UniFilter plate is allowed to stand overnight at room temperature. The radioactivity of [^3H]-Mesulergine bound to the 5-HT2C receptor is measured using Microbeta2 (PerkinElmer) at a measurement time of 1 min/well. The Saturation curve is drawn from the measured value, and the Kd value is calculated from the slope of the Scatchard Plot.
(§4) (Binding Test of the Compound According to the Present Invention)
In advance, 0.5 μL of the compound solution dissolved in DMSO is dispensed into a microplate, and the cell membrane and the hot ligand are diluted with Assay buffer, respectively. Then, the Assay buffer containing the diluted cell membrane is dispensed into a microplate at 50 μL/well. Then, the radioactive ligand solution is dispensed into a microplate at 50 μL/well, and the plate is sealed. Then, it is allowed to stand at 37° C. for 2 hours. During this period, 50 mmol/L Tris-HCl (pH 7.4) is dispensed into a GF/B UniFilter plate at 50 μL/well and allowed to stand at 4° C. for 1 hour or longer. After that, filtration is performed with Cell harvester (PerkinElmer). After the GF/B UniFilter plate is dried at room temperature, MicroScinti 20 is dispensed into the GF/B UniFilter plate at 50 μL/well, and the plate is sealed. The GF/B UniFilter plate is allowed to stand overnight at room temperature. The radioactivity of [^3H]-Mesulergine bound to the 5-HT2C receptor is measured using Microbeta2 (PerkinElmer) at a measurement time of 1 min/well. The non-specific binding is calculated from the radioactivity of […] in the presence of 500 μmol/L Serotonin HCl which is the unlabeled ligand, and the total binding is calculated from the radioactivity of [^3H]-Mesulergine in the absence of the compound according to the present invention (Vehicle). Finally, the Ki value is calculated from the dose-response curve.
(§5) (The binding activity of the compound according to the present invention is calculated from the following binding inhibition rate (%).)
(§6) [formula] • a; mean cpm of non-specific binding • b; average cpm of total binding • c; cpm in the presence of the test compound

[2] = target: human recombinant 5-HT2A receptor (Homo sapiens (Human), UniProt P28223); assay: 5-HT2A receptor binding inhibition test ([3H]-Ketanserin); conditions: Jump-In HEK cell membrane, 25° C. 1.5 hours
Procedure: Test Example 1: 5-HT2A Receptor Binding Inhibition Test
as §1
Cell membrane: 15 μg of Jump-In HEK cell membrane (expressing human recombinant 5-HT2A receptor) per well
as §2
Radioactive ligand: [^3H]-Ketanserin with a final concentration of around Kd value calculated by the following method
Non-specific ligand: Serotonin HCl with a final concentration of 500 μmol/L
as §3, with “at room temperature (25° C.)” for “at 37° C.”, “for 1.5” for “for 2”, “of [^3H]-Ketanserin” for “of [^3H]-Mesulergine”, “the 5-HT2A” for “the 5-HT2C”
as §4
In advance, 0.5 μL of the compound solution dissolved in DMSO is dispensed into a microplate, and the cell membrane and the hot ligand are diluted with Assay buffer, respectively. Then, the Assay buffer containing the diluted cell membrane is dispensed into a microplate at 50 μL/well. Then, the radioactive ligand solution is dispensed into a microplate at 50 μL/well, and the plate is sealed. Then, it is allowed to stand at room temperature (25° C.) for 1.5 hours. During this period, 50 mmol/L Tris-HCl (pH 7.4) is dispensed into a GF/B UniFilter plate at 50 μL/well and allowed to stand at 4° C. for 1 hour or longer. After that, filtration is performed with Cell harvester (PerkinElmer). After the GF/B UniFilter plate is dried at room temperature, MicroScinti 20 is dispensed into the GF/B UniFilter plate at 50 μL/well to seal the plate. The GF/B UniFilter plate is allowed to stand overnight at room temperature. The radioactivity of [^3H]-Ketanserin bound to the 5-HT2A receptor is measured using Microbeta2 (PerkinElmer) at a measurement time of 1 min/well. The non-specific binding is calculated from the radioactivity of [^3H]-Ketanserin in the presence of 500 μmol/L Serotonin HCl which is the unlabeled ligand, and the total binding is calculated from the radioactivity of [^3H]-Ketanserin in the absence of the compound according to the present invention (Vehicle). Finally, the Ki value is calculated from the dose-response curve.
as §5, §6

[3] = read-out: human serotonin 5-HT2C receptor binding activity Ki
[4] = read-out: human serotonin 5-HT2A receptor binding activity Ki

Sequence of human recombinant 5-HT2C receptor (P28335 33-458): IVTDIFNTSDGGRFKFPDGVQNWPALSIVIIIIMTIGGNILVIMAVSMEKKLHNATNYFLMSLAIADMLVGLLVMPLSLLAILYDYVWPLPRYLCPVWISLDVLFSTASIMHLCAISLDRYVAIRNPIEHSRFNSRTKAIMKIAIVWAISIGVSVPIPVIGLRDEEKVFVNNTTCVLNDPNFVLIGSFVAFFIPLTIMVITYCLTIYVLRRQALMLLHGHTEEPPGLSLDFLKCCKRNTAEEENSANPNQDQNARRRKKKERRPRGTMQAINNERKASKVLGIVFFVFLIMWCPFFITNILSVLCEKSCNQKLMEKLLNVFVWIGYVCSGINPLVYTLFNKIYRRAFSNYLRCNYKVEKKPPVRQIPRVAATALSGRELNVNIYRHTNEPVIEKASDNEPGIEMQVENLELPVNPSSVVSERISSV
Sequence of human recombinant 5-HT2A receptor (P28223 whole entry): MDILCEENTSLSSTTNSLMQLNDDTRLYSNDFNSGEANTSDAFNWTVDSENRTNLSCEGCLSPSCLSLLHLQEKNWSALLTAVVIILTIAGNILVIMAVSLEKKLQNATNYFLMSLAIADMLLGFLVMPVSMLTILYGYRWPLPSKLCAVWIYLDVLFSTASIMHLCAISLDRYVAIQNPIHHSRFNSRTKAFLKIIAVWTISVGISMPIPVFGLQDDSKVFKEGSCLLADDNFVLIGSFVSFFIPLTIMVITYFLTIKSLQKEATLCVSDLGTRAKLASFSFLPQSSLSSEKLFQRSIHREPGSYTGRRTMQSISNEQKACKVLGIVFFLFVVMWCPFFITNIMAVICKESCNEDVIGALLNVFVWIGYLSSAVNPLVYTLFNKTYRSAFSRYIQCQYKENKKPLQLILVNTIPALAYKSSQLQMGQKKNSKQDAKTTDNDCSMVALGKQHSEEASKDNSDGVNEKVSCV

Ki ([1]; read-out: h-5-HT2C Ki) [nM]	Ki ([2]; read-out: h-5-HT2A Ki) [nM]	Ki [1, 3] [nM]	Ki [2, 4] [nM]	Compound
< 10	10 to 100			Cc1nc(CN(Cc2ccc(OCC(C)C)cc2)C2=NOC3(CCN(C)CC3)N2)no1 [Compound I-018]
100 to 500	< 10			CC(C)COc1ccc(CN(Cc2cn(C)cn2)C2=NOC3(CCN(C)CC3)N2)cc1 [Compound I-019]
100 to 500	10 to 100			CC(C)COc1ccc(CN(Cc2ccc(F)cc2)C2=NC3(CCN(C)CC3)CO2)cc1 [Compound I-020]
10 to 100	< 10			CC(C)COc1ccc(CN(Cc2ccc(F)cc2)C2=NC(=O)C3(CCN(C)CC3)N2)cc1 [Compound I-021]
10 to 100	10 to 100			CC(C)CNc1ccc(CN(Cc2ccn(C)n2)C2=NOC3(CCN(C)CC3)N2)cc1 [Compound I-023]
10 to 100	< 10			CCCOc1ccc(CC2=NOC3(CCN(C)CC3)N2Cc2ccc(F)cn2)cc1 [Compound I-024]
10 to 100	10 to 100			CCCOc1ccc(CC2=NOC3(CCN(C)CC3)N2Cc2ccn(C)n2)cc1 [Compound I-025]
		2.21	1.89	CCCOc1ccc(CC2=NOC3(CCN(C)CC34CC4)N2Cc2ccn(C)n2)cc1 (stereo not drawn) [Compound I-027]
10 to 100	< 10			CC(C)COc1ccc(CN(Cc2ccc(F)cn2)C2=NC(=O)C3(CCN(C)CC3)N2)cc1 [Compound I-030]
10 to 100	10 to 100			CC(C)COc1ccc(CN(Cc2cocn2)C2=NOC3(CCN(C)CC3)N2)cc1 [Compound I-031]
10 to 100	10 to 100			Cc1cnc(CN(Cc2ccc(OCC(C)C)cc2)C2=NOC3(CCN(C)CC3)N2)o1 [Compound I-032]
		19	10.1	CC(C)COc1ccc(CN(Cc2ccn(C)n2)C2=NC(=O)C3(CCN(C)CC3)N2)cc1 [Compound I-033]
< 10	10 to 100			Cc1nc(CN(Cc2ccc(OCC(C)C)cc2)C2=NC(=O)C3(CCN(C)CC3)N2)co1 [Compound I-039]
100 to 500	10 to 100			CC(C)COc1ccc(CN(Cc2cnn(C)c2)C2=NOC3(CCN(C)CC3)N2)cc1 [Compound I-046]
		0.524	0.961	CC(C)COc1ccc(CN(Cc2coc(C3CC3)n2)C2=NOC3(CCN(C)CC3)N2)cc1 [Compound I-049]
100 to 500	100 to 500			Cc1nc(CN(Cc2ccc(OCC(C)C)cc2)C2=NC3(CCNCC3)ON2C)co1 [Compound I-051]
100 to 500	100 to 500			Cc1nc(CN(Cc2ccc(OCC(C)C)cc2)C2=NC3(CCN(C)CC3)ON2C)co1 [Compound I-052]
10 to 100	< 10			Cc1coc(CN(Cc2ccc(OCC(C)C)cc2)C2=NOC3(CCN(C)CC3)N2)n1 [Compound I-054]
10 to 100	< 10			CC(C)COc1ccc(CN(Cc2ccc(F)cc2)C2=NOC3(CCN(C)CC3)N2)cc1 [Compound I-055]
		2.19	5.2	Cc1nc(CN(Cc2ccc(OCC(C)C)cc2)C2=NC(=O)C3(CCN(C)CC3)N2)cs1 [Compound I-057]
100 to 500	10 to 100			Cc1cc(CN(Cc2ccc(OCC(C)C)cc2)C2=NC(=O)C3(CCN(C)CC3)N2)nn1C [Compound I-058]
10 to 100	10 to 100			Cc1cnc(CN(Cc2ccc(OCC(C)C)cc2)C2=NC(=O)C3(CCN(C)CC3)N2)nc1 [Compound I-061]
10 to 100	< 10			Cc1ccc(CN(Cc2ccc(OCC(C)C)cc2)C2=NC(=O)C3(CCN(C)CC3)N2)nc1 [Compound I-062]
10 to 100	< 10			CC(C)COc1ccc(CN(Cc2ccco2)C2=NC(=O)C3(CCN(C)CC3)N2)cc1 [Compound I-063]

Compound	Ki ([1]; read-out: h-5-HT2C Ki) [nM]	Ki ([2]; read-out: h-5-HT2A Ki) [nM]	Ki [1, 3] [nM]	Ki [2, 4] [nM]
Cc1nc(CN(Cc2ccc(OCC(C)C)cc2)C2=NOC3(CCN(C)CC3)N2)cs1 [Compound I-017]	< 10	< 10		
CC(C)COc1ccc(CN(Cc2ccc(F)cc2)C2=NC(=O)C3(CCNCC3)N2)cc1 [Compound I-022]	< 10	< 10		
CCCOc1ccc(CC2=NOC3(CCN(C)CC34CC4)N2Cc2ccc(F)cn2)cc1 (stereo not drawn) [Compound I-026]	< 10	< 10		
CCCOc1ccc(CN(Cc2coc(C)n2)C2=NOC3(CCN(C)CC3)N2)cc1 [Compound I-028]	< 10	< 10		
CC(C)COc1ccc(CN(Cc2ccn(C)n2)C2=NOC3(CCNCC3)N2)cc1 [Compound I-036]	< 10	< 10		
Cc1nc(CN(Cc2ccc(OCC(F)(F)F)cc2)C2=NOC3(CCN(C)CC3)N2)co1 [Compound I-047]	< 10	< 10		
Cc1nc(CN(Cc2ccc(OCC(C)C)cc2)C2=NOC3(CCNCC3)N2)co1 [Compound I-048]	< 10	< 10		
CC(C)COc1ccc(CN(Cc2coc(C(F)F)n2)C2=NOC3(CCN(C)CC3)N2)cc1 [Compound I-050]	< 10	< 10		
Cc1ncc(CN(Cc2ccc(OCC(C)C)cc2)C2=NOC3(CCN(C)CC3)N2)o1 [Compound I-053]	< 10	< 10		
